# Experimental data as given in patent publication US10501503B2, “Modified membrane permeability” (Cathay Biotech Inc., priority 2015, dated 2019).
# Legend:
# E. coli = details: Qian et al., Biotechnology and Bioengineering 108:93-103, 2010; cited from earlier work
# H. alvei = test: Cadaverine inhibits gram-negative bacteria: lysine-to-cadaverine conversion after pre-incubation in cadaverine; assay type: cell-based, Hafnia alvei; details: 3% cadaverine for 24 hours
# Protocol: We studied the affect of cadaverine on the gram-negative bacteria H. alvei. First, H. alvei was transformed with pCIB60 and grown for 24 hours in 50 mL LB medium with ampicillin (100 μg/mL) at 37° C. The following day, 50 mL of the seed culture was added to a 10 L jar fermenter containing […] of fermentation medium (20 g/L glucose, 30 g/L corn steep liquor, 10 g/L yeast extract, 5 g/L ammonium sulfate, 10 g/L MgSO4, 0.05 g/L FeSO4, 0.05 g/L MnSO4, 5 g/L CaCl2, 0.1 g/L ampicillin), and the fermentation proceeded for 18 hours. 10 g of fermentation broth was collected, centrifuged at 6000 rpm for 5 min at room temperature, and the biomass was recovered. 0.5 g of biomass was added to a 50 mM potassium phosphate buffer with either 0% or 3% cadaverine for 24 hours. After incubation, each sample was centrifuged at 6000 rpm for 5 min at room temperature, the biomass was recovered, and fresh potassium phosphate buffer with lysine-HCl and PLP to a final concentration of 200 g/L and 0.1 mM, respectively, was added. The initial pH of the reaction as adjusted to 5.0, and the reaction was allowed to proceed for 120 minutes at 37° C. […] The cadaverine concentration in each sample was quantified using NMR, and yield was calculated by dividing the molar amount of cadaverine produced by the molar amount of lysine added.
smiles,measurement,setting,value
NCCCCCN [cadaverine],Effect of cadaverine on growth of E. coli,E. coli,inhibits growth
same,Effect of cadaverine pre-incubation on the cells' ability to convert lysine to cadaverine,H. alvei,significant decrease in conversion ability
